Measurements as given in patent US20230041563A1, “N-(1,3,4-OXADIAZOL-2-YL)ARYLCARBOXAMIDES OR SALTS THEREOF, PREPARATION METHODS, HERBICIDAL COMPOSITIONS AND USES THEREOF” (priority 2018, published 2023).

Columns and labels:
Echinochloa crusgalli = experiment: Weeding effect in post-emergence stage (greenhouse pot spray); type: in vivo
How it was run: (§1)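 Greenhouse pot plants at the 2–3 leaf stage (2 weeks after sowing) were sprayed with compound in acetone with Tween 80 and methyl oleate EC synergist (1.5 L/ha) at 500, 250, 125, 60 or 15 g a.i./ha. Fresh-weight growth control was scored 3 weeks later, averaged over three replicates.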

Setaria viridis = experiment: as above; type: in vivo
How it was run: as §1

Digitaria sanguinalis [1] = experiment: as above; type: in vivo
How it was run: as §1

Echinochloa crusgali = experiment: Transplanted rice safety evaluation and weed control effect evaluation in rice field; type: in vivo; conditions: Table 8, dose 60 g a.i./ha
Source text: (§2) Transplanted rice safety evaluation and weed control effect evaluation in rice field:
(§3) Rice field soil was loaded into a 1/1,000,000 ha pot. The seeds of echinochloa crusgali, scirpus juncoides, Bidens tripartita, Sagittaria trifolia, Monochoria vaginalis and Leptochloa chinensis were sowed and gently covered with soil, then left to stand still in greenhouse in the state of 0.5-1 cm of water storage. The tuber of Sagittaria trifolia was planted in the next day or 2 days later. It was kept at 3-4 cm of water storage thereafter. The weeds were treated by dripping the WP or SC water diluents prepared according to the common preparation method of the compounds of the present invention with pipette homogeneously to achieve specified effective amount when echinochloa crusgali, scirpus juncoides, Bidens tripartita, Monochoria vaginalis and Leptochloa chinensis reached 0.5 leaf stage and Sagittaria trifolia reached the time point of primary leaf stage.
(§4) The fertility condition of echinochloa crusgali, scirpus juncoides, Bidens tripartita, Leptochloa chinensis, Sagittaria trifolia and Monochoria vaginalis 14 days after the treatment of the compound of the invention and the fertility condition of rice 21 days after the treatment of the compound of the invention respectively with the naked eye. Evaluate the weed control effect with 0-5 activity standard level. Many compounds show excellent activity and selectivity.

Sagittaria trifolia = experiment: as above; type: in vivo; conditions: Table 8, dose 60 g a.i./ha
Source text: as §2, §3, §4

Leptochloa chinensis [2] = experiment: as above; type: in vivo; conditions: Table 8, dose 60 g a.i./ha
Source text: as §2, §3, §4

Monochoria vaginalis = experiment: as above; type: in vivo; conditions: Table 8, dose 60 g a.i./ha
Source text: as §2, §3, §4

Abutilon theophrasti = experiment: Post-emergence control experiment of R configuration compound activity (weeds 4-5 leaf stage, 25 days); type: in vivo; conditions: Abutilon theophrasti, post-emergence; read-out: Ablation theophrasti (30 g a.i./ha) inhibition rate
Method: (§5) Experiment on weeding effect in post-emergence stage: after 3-4 weeks of sowing, the test plants were treated in the 1.5-2 leaf stage of the directly sowed rice Longyang 16, and the 4-5 leaf stage of weeds. After the application of the compounds of the present invention, the plants were cultured for 25 days in the greenhouse, and then the experimental results of the weeding were counted.

Green Setaria viridis = experiment: as above; type: in vivo; conditions: Setaria viridis, post-emergence; for inhibition at 30 g/ha: read-out: Green Setaria viridis (30 g a.i./ha) inhibition rate; for inhibition at 60 g/ha: read-out: Green Setaria viridis (60 g a.i./ha) inhibition rate
Method: as §5

Digitaria sanguinalis [3] = experiment: as above; type: in vivo; conditions: Digitaria sanguinalis, post-emergence; read-out: Digitaria sanguinalis (30 g a.i./ha) inhibition rate
Method: as §5

Leptochloa chinensis [4] = experiment: as above; type: in vivo; conditions: for inhibition at 60 g/ha / inhibition at 125 g/ha: Dinebra chinensis, post-emergence; for inhibition at 60 g/ha: read-out: Leptochloa chinensis (60 g a.i./ha) inhibition rate; for inhibition at 125 g/ha: read-out: Leptochloa chinensis (125 g a.i./ha) inhibition rate; for activity against key weed Leptochloa chinensis / key weeds, in words: in vivo
Method: as §5

Rice = experiment: Transplanted rice safety evaluation and weed control effect evaluation in rice field; type: in vivo, rice (japonica rice/Indica rice); conditions: Table 8, dose 60 g a.i./ha
Method: as §2
In addition, the rice field soil that loaded into the 1/1,000,000 ha pot was leveled to keep water storage at 3-4 cm depth. The 3 leaf stage rice (japonica rice/Indica rice) was transplanted at 3 cm of transplanting depth the next day. The compound of the present invention was treated by the same way after 5 days of transplantation.
as §4

Rice (Longyang 16) = experiment: Post-emergence control experiment of R configuration compound activity (directly sowed rice 1.5-2 leaf stage, 25 days); type: in vivo; conditions: for safety on rice (Longyang 16), in words: in vivo
Method: as §5
Longyang 16 is a representative and important long-grain fragrant rice in Northeast China. Long-grain fragrant rice is more sensitive to herbicides, especially to HPPD herbicides such as Mesotrione, Benzobicylon and the like, which are prone to causing phytotoxicity.

Structure (SMILES)	inhibition at 30 g/ha (Abutilon theophrasti) [%]	inhibition at 30 g/ha (Green Setaria viridis) [%]	inhibition at 60 g/ha (Green Setaria viridis) [%]	inhibition at 30 g/ha (Digitaria sanguinalis [3]) [%]	inhibition at 60 g/ha (Leptochloa chinensis [4]) [%]	inhibition at 125 g/ha (Leptochloa chinensis [4]) [%]	activity against key weed Leptochloa chinensis / key weeds, in words (Leptochloa chinensis [4])	Rice (Longyang 16) (250 g a.i./ha) inhibition rate (Rice (Longyang 16)) [%]	Rice (Longyang 16) (500 g a.i./ha) inhibition rate (Rice (Longyang 16)) [%]	safety on rice (Longyang 16), in words (Rice (Longyang 16))	other results
CCC[S@@+]([O-])c1c(C(F)(F)F)ccc(C(=O)Nc2nnc(C)o2)c1F [1-8 (R-configuration)]	100	75	100	100	85	100	better activity	0	0	high safety	Echinochloa crusgali (activity level) (Echinochloa crusgalli; Table 3, dose 3.75 g a.i./ha): 5 (Level 5: growth control rate is above 85%); Echinochloa crusgali (activity level) (Echinochloa crusgalli; Table 3, dose 7.5 g a.i./ha): 5 (Level 5: growth control rate is above 85%); Echinochloa crusgali (activity level) (Echinochloa crusgalli; Table 3, dose 15 g a.i./ha): 5 (Level 5: growth control rate is above 85%); Echinochloa crusgali (activity level) (Echinochloa crusgalli; Table 3, dose 30 g a.i./ha): 5 (Level 5: growth control rate is above 85%); Echinochloa crusgali (activity level) (Echinochloa crusgalli; Table 3, dose 60 g a.i./ha): 5 (Level 5: growth control rate is above 85%); Setaria viridis (activity level) (Setaria viridis; Table 3, dose 3.75 g a.i./ha): 2 (Level 2: growth control rate is greater than or equal to 20% and less than 40%); Setaria viridis (activity level) (Setaria viridis; Table 3, dose 7.5 g a.i./ha): 4 (Level 4: growth control rate is greater than or equal to 60% and less than 85%); Setaria viridis (activity level) (Setaria viridis; Table 3, dose 15 g a.i./ha): 5 (Level 5: growth control rate is above 85%); Setaria viridis (activity level) (Setaria viridis; Table 3, dose 30 g a.i./ha): 5 (Level 5: growth control rate is above 85%); Setaria viridis (activity level) (Setaria viridis; Table 3, dose 60 g a.i./ha): 5 (Level 5: growth control rate is above 85%); Digitaria sanguinahs (activity level) (Digitaria sanguinalis [1]; Table 3, dose 3.75 g a.i./ha): 4 (Level 4: growth control rate is greater than or equal to 60% and less than 85%); Digitaria sanguinahs (activity level) (Digitaria sanguinalis [1]; Table 3, dose 7.5 g a.i./ha): 5 (Level 5: growth control rate is above 85%); Digitaria sanguinahs (activity level) (Digitaria sanguinalis [1]; Table 3, dose 15 g a.i./ha): 5 (Level 5: growth control rate is above 85%); Digitaria sanguinahs (activity level) (Digitaria sanguinalis [1]; Table 3, dose 30 g a.i./ha): 5 (Level 5: growth control rate is above 85%); Digitaria sanguinahs (activity level) (Digitaria sanguinalis [1]; Table 3, dose 60 g a.i./ha): 5 (Level 5: growth control rate is above 85%); Echinochloa crusgali (activity level) (Echinochloa crusgali): 5 (Level 5: growth control rate is above 85%); Sagittaria trifolia (activity level) (Sagittaria trifolia): 5 (Level 5: growth control rate is above 85%); Leptochloa chinensis (activity level) (Leptochloa chinensis [2]): 5 (Level 5: growth control rate is above 85%); Monochoria vaginalis (activity level) (Monochoria vaginalis): 5 (Level 5: growth control rate is above 85%); Rice (safety level) (Rice): 0 (Level 0: growth control rate is less than 5%)
CCC[S@+]([O-])c1c(C(F)(F)F)ccc(C(=O)Nc2nnc(C)o2)c1F [1-8 (S-configuration)]	0	0	15	0	0	10	lower activity	15	25	not safe	
